In US20250099475A1, “METHODS OF TREATING HYPERTENSION BY PERIODIC SUPPRESSION OF ALDOSTERONE SYNTHASE” (Mineralys Therapeutics, Inc., priority 2022, published 2025):
Like-named read-outs stand apart in the source and are kept apart here.

Experiments:
cardiovascular system = test: Cardiovascular system in telemetered monkeys; format: in vivo, cynomolgus monkey; conditions: single oral doses up to 100-mg/kg as free base
Experimental: Effects of Compound A on the cardiovascular system were evaluated with conscious telemetered cynomolgus monkeys. Single doses of 0, 10, 30, or 100 mg/kg of Compound A as free base were orally administered to four male monkeys in a Latin-square design with a 7-day interval between dosing. Blood pressure, heart rate, and electrocardiogram parameters (PR interval, QRS duration, QT interval, and QTcB) were evaluated up to 24 hours after each dosing.

[1] = system: plasma aldosterone concentrations (PACs); test: Sodium-depleted cynomolgus monkey model; format: in vivo; conditions: single oral administration
Experimental: A sodium-depleted cynomolgus monkey model with secondary hyperaldosteronism was performed to evaluate the effect of Compound A on plasma aldosterone concentrations (PACs). The model used a low-sodium diet and 3 doses of 5 mg/kg furosemide. Two animals each were assigned to 6 groups consisting of a vehicle group and 5 Compound A (free base) groups (0.3, 1, 3, 10, and 30 mg/kg). Six crossovers were performed so that every animal was assigned to each group. Hyperaldosteronism was induced once every 3 weeks. PAC was determined by radioimmunoassay and measured during the 24 hours after Compound A administration.

human CYP11B2 (hCYP11B2) = molecular target: T1, human CYP11B2 (hCYP11B2) (Homo sapiens, UniProt P19099); test: Assay of hCYP11B2 inhibition (11-DOC to aldosterone); format: biochemical; conditions: mitochondrial fraction of V79 cells stably expressing hCYP11B2; substrate 11-DOC; read-out: Inhibition constant (Ki) hCYP11B2
T1 construct: expressed in transfected cells; host or cells: V79 cells (mitochondrial fraction)
Experimental: The inhibitory effects of Compound A on human CYP 11B1 (hCYP11B1) and human CYP11B2 (hCYP11B2) enzyme activity were evaluated by determining the enzymatic conversion rates of 11-deoxycortisol to cortisol for hCYP11B1 and 11-DOC to aldosterone for hCYP11B2.

[2] = Phase 1 part 1 single ascending dose: pharmacokinetics; format: in vivo, human; conditions: for half-life / Tmax: male, human, plasma, oral
Experimental: A 4-part, Phase 1 randomized, double-blind, placebo-controlled, first-in-human study was performed to determine the safety, tolerability, PK, and PD of single ascending doses (SADs; part 1) and multiple ascending doses (MADs; part 2) of Compound A HBr in healthy participants. The study also assessed whether there were sex (part 3) and age-related (part 4) effects on the PK of a single dose of Compound A HBr. The study was approved by the local independent ethics committee; the BEBO foundation in Assen, Netherlands; and the Central Committee on Research Involving Human Subjects in The Hague, Netherlands; and conducted according to the provisions of the Declaration of Helsinki. Written informed consent was obtained from each study participant before conducting any protocol-related procedures.
In part 1, Compound A HBr or placebo was administered to 64 healthy Caucasian men aged 18 to 55 years (inclusive) in 8 cohorts of 8 participants each. In each cohort, 6 participants were randomized to receive a single dose of Compound A HBr and 2 participants were randomized to receive matching placebo. All cohorts included 2 sentinel participants of whom 1 received Compound A HBr and 1 received matching placebo. The remaining 6 participants, of whom 5 received Compound A HBr and 1 received placebo, were dosed ≥24 hours following the sentinel participants. The dosing cohorts were 5, 10, 20, 50, 100, 200, 400, and 800 mg. Doses were administered in an ascending order per cohort, with a minimum 10-day interval between consecutive dose levels. Participants received a single dose of Compound A HBr or placebo in the fasted state.
Plasma PK parameters were derived by non-compartmental analysis using WinNonlin® (version 6.3). Dose proportionality was assessed using the power model with AUC0-∞, AUC0-last, and Cmax for part 1 (SAD) and with AUC0-last, AUC0-∞, AUC0-τ, and Cmax for part 2 (MAD). A linear model (ln(Y)=α+β×ln(X), where Y is the pharmacokinetic parameter and X is the dose) was used to fit the power model, after log-transformation of the parameters. Dose proportionality was concluded if the 95% confidence interval (CI) for slope (β) included the value 1.
An analytical method for the determination of Compound A in human plasma (dipotassium ethylenediaminetetraacetic acid [K2-EDTA]) and human urine using solid-phase extraction and high-performance liquid chromatography with mass spectrometric detection was successfully validated over the concentration range 0.1000 ng/mL (lower limit of quantification) to 100.0 ng/mL prior to initiation of the clinical trial. […] For all other analytes, validated quantitative measurement methods were used.

[3] = Phase 1 parts 3 and 4: sex- and age-related effects on PK; format: in vivo, human; conditions: single 100-mg dose; not statistically significant
Experimental: Part 3 of the study evaluated the sex-related effects on the safety, tolerability, and PK of Compound A HBr. In 1 cohort of 8 healthy Caucasian women aged 20 to 35 years (inclusive), 6 participants were randomized to receive a single 100-mg dose of Compound A HBr and 2 participants were randomized to receive matching placebo. Compound A HBr or placebo was administered in the fasted state. The results were compared with those in the cohort at the same dose as in Part 1.
Part 4 of the study evaluated the age-related effects on safety, tolerability, and PK of Compound A HBr. In 1 cohort of 8 healthy Caucasian men aged 68 to 80 years, 6 participants were randomized to receive a single 100-mg dose of Compound A HBr and 2 participants were randomized to receive matching placebo. Compound A HBr or placebo were administered in the fasted state. The results were compared with those in the cohort at the same dose as in Part 1.
A linear model was used to analyze log-transformed AUC and Cmax with sex or age as fixed effects. Difference in least square means (LSM) and corresponding 90% CI were back-transformed to obtain the estimates of geometric mean ratios and their CI for females vs. males and ≥65 years vs. <65 years participants.

T1 sequence (P19099 25-503): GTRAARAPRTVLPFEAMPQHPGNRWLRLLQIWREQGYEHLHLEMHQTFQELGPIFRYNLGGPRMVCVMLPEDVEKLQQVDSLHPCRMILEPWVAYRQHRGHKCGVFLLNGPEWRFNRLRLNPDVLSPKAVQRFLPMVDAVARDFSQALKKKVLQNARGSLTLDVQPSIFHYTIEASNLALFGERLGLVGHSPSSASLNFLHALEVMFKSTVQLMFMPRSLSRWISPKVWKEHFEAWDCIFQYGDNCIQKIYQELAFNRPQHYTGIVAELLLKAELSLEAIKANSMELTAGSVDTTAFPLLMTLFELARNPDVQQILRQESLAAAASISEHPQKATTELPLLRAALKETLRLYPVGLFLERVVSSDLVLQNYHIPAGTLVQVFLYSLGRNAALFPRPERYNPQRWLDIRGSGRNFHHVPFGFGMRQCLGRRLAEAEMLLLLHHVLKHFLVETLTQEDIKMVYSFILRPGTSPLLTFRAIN

In the case of `CC(=O)N[C@H]1CC[C@H](NC(=O)CN2CCN(c3nncc(-c4ccc(C)cc4)n3)CC2)CC1` [Compound A], the “effects on cardiovascular parameters (blood pressure, heart rate, electrocardiogram)” value (cardiovascular system) is reported as “no effects”, the “effect on PAC” value [1] is reported as “significantly decreased PAC” and the Ki (human CYP11B2 (hCYP11B2)) is reported as 1.27 nM.
`CC(=O)N[C@H]1CC[C@H](NC(=O)CN2CCN(c3nncc(-c4ccc(C)cc4)n3)CC2)CC1` [Compound A HBr] gave a half-life ([2]; single 5 mg, fasted, read-out: T 1/2, mean (SD) (converted)) of 8 h, a half-life ([2]; single 10 mg, fasted, read-out: T 1/2, mean (SD) (converted)) of 8 h and a Tmax ([2]; single 10 mg, fasted, read-out: Tmax, median and range) of 1.25 h. For the same compound, the Tmax ([2]; single 200 mg, fasted, read-out: Tmax, median and range) was 1.25 h, the Tmax ([2]; single 400 mg, fasted, read-out: Tmax, median and range) was 1.25 h and the half-life ([2]; single 800 mg, fasted, read-out: T 1/2, mean (SD) (converted)) was 11 h. For the same compound, the Tmax ([2]; single doses 5 to 800 mg, read-out: Median Tmax values) was 1 to 1.5 h, the half-life ([2]; single doses 5 to 800 mg, read-out: mean t1/2 values) was 7.92 to 10.5 h and the “AUC0-inf, mean (SD)” value ([2]; single 5 mg, fasted) was 231 (25) ng × h/mL. For the same compound, the “Cmax, mean (SD)” value ([2]; single 5 mg, fasted) was 37 (7) ng/mL, the “Tmax, median and range” value ([2]; single 5 mg, fasted) was 1.5 (1-3) h and the “AUC0-inf, mean (SD)” value ([2]; single 10 mg, fasted) was 451 (46) ng × h/mL. The “Cmax, mean (SD)” value ([2]; single 10 mg, fasted) was 76 (20) ng/mL, the “AUC0-inf, mean (SD)” value ([2]; single 20 mg, fasted) was 768 (182) ng × h/mL and the “Cmax, mean (SD)” value ([2]; single 20 mg, fasted) was 141 (76) ng/mL. For the same compound, the “Tmax, median and range” value ([2]; single 20 mg, fasted) was 1.5 (1-3) h, the “AUC0-inf, mean (SD)” value ([2]; single 50 mg, fasted) was 2155 (258) ng × h/mL and the “Cmax, mean (SD)” value ([2]; single 50 mg, fasted) was 573 (206) ng/mL. For the same compound, the “T 1/2, mean (SD)” value ([2]; single 50 mg, fasted) was 9 (2) h, the “Tmax, median and range” value ([2]; single 50 mg, fasted) was 1 (0.5-3) h and the “AUC0-inf, mean (SD)” value ([2]; single 100 mg, fasted) was 5366 (493) ng × h/mL. For the same compound, the “Cmax, mean (SD)” value ([2]; single 100 mg, fasted) was 1211 (248) ng/mL, the “Tmax, median and range” value ([2]; single 100 mg, fasted) was 1.5 (1-3) h and the “AUC0-inf, mean (SD)” value ([2]; single 200 mg, fasted) was 10645 (3486) ng × h/mL. The “Cmax, mean (SD)” value ([2]; single 200 mg, fasted) was 2848 (1015) ng/mL, the “T 1/2, mean (SD)” value ([2]; single 200 mg, fasted) was 10 (4) h and the “AUC0-inf, mean (SD)” value ([2]; single 400 mg, fasted) was 17257 (2907) ng × h/mL. For the same compound, the “Cmax, mean (SD)” value ([2]; single 400 mg, fasted) was 4455 (862) ng/mL, the “AUC0-inf, mean (SD)” value ([2]; single 800 mg, fasted) was 29331 (3623) ng × h/mL and the “Cmax, mean (SD)” value ([2]; single 800 mg, fasted) was 7708 (1617) ng/mL. For the same compound, the “Tmax, median and range” value ([2]; single 800 mg, fasted) was 1.5 (0.5-4) h, the “dose proportionality of AUC0-last and AUC0-∞” value ([2]; single doses 5 to 800 mg) was “dose-proportional increase” and the “AUC higher in female than in male participants” value [3] was 19%. For the same compound, the “AUC lower in men aged ≥65 years vs <65 years” value [3] was about 12%, the “Cmax higher in female than in male participants” value [3] was 25% and the “Cmax lower in men aged ≥65 years vs <65 years” value [3] was “approximately 14%”.
